The values that follow come from patent US20110154724A1, “FATTY ESTER COMPOSITIONS WITH IMPROVED OXIDATIVE STABILITY” (TAMINCO, priority 2008, published 2011).

Data set [1] is described as follows: Rancimat oxidative stability (EN 14112) of biodiesel with additives. The format is physicochemical. The settings on record: for Rancimat oxidative stability: untreated 5.1 hours, EN 14112. An excerpt: The oxidative stability of biodiesel is an important property thereof and is subjected to criteria which may differ from country to country. In the US, oxidative testing of biodiesel is done according to ASTM 6751-08 whereby the B100 (100% biodiesel) must pass a minimum of three hours oxidative stability as done by the Rancimat test. The European oxidation criteria is a minimum of six hours as per EN 14112. Some commercial biodiesel manufacturers and blenders require even eight hours oxidative stability to ensure that B100 biodiesel stored for prolonged periods of time will be suitable for commerce.
Use was made in this example of a pure soy-biodiesel (methyl ester of soy oil) from a commercial source having a Rancimat oxidative stability (tested in accordance with EN 14112) of 5.1 hours.

The conditions of data set [2]: 25° C.; cited from earlier work.
A short description of data set [3]: Solubility tests of antioxidant package components in alkanolamine / hydroxylamine. Type of data set: physicochemical. On the procedure:
Additionally, 2 grams of octyldiethanolamine (ODEA) was added to the additive mixture.

The mark [4] stands for this setting: 450 ppm added to B100 soy-biodiesel.

For the compound `CC1(C)CC(O)CC(C)(C)N1[O]` [4-HT, 4-hydroxy-2,2,6,6-tetramethylpiperidino-1-oxy], the Rancimat oxidative stability in data set [1] (50 ppm added to B100 soy-biodiesel) turned out to be 5.5 h.

`CCCCN(CCO)CCO` [BDEA, butyldiethanolamine]: in data set [1] (250 ppm added to a different sample of soy methyl ester), the oxidation stability came to 3.5 h. For the same compound, the Rancimat oxidative stability in data set [1] (setting [4]) is 6.1 h.

In the case of `CCN(O)CC` [Diethylhydroxylamine, diethylhydroxylamine], in data set [2], the vapor pressure is listed as 32 Torr.

In the case of `CCCCCCCCN(CCO)CCO` [ODEA, octyldiethanolamine], the “solubility in anhydrous DEHA” value in data set [3] (0.5 grams 4-HT into 7.5 grams anhydrous DEHA, additionally 2 grams ODEA) was “completely soluble”. This compound yielded a Rancimat oxidative stability in data set [1] (setting [4]) of 8.3 h.

For `CCCOC(=O)c1cc(O)c(O)c(O)c1` [propyl gallate], the “solubility in OAE” value in data set [3] (0.5 grams 4-HT along with 1 gram propyl gallate into 15 grams OAE) is “completely soluble”.
